Results published in patent US8470829B2 (priority 2004, dated 2013).
Where two headings read alike, the source gives them in different places.

How the values were obtained:
human androgen receptor [1] = target: T1, human androgen receptor (Homo sapiens, UniProt P10275); assay: Measurement of agonist effect on androgen receptor (reporter gene assay, 11A11B2 cells); assay type: cell-based; conditions: compound concentration showing a transcription activity of 5% (0.1 nmol/L DHT = 100%, assay medium alone = 0%), 48 hours
T1 construct: expressed in transfected cells
T1 sequence (P10275 1-920): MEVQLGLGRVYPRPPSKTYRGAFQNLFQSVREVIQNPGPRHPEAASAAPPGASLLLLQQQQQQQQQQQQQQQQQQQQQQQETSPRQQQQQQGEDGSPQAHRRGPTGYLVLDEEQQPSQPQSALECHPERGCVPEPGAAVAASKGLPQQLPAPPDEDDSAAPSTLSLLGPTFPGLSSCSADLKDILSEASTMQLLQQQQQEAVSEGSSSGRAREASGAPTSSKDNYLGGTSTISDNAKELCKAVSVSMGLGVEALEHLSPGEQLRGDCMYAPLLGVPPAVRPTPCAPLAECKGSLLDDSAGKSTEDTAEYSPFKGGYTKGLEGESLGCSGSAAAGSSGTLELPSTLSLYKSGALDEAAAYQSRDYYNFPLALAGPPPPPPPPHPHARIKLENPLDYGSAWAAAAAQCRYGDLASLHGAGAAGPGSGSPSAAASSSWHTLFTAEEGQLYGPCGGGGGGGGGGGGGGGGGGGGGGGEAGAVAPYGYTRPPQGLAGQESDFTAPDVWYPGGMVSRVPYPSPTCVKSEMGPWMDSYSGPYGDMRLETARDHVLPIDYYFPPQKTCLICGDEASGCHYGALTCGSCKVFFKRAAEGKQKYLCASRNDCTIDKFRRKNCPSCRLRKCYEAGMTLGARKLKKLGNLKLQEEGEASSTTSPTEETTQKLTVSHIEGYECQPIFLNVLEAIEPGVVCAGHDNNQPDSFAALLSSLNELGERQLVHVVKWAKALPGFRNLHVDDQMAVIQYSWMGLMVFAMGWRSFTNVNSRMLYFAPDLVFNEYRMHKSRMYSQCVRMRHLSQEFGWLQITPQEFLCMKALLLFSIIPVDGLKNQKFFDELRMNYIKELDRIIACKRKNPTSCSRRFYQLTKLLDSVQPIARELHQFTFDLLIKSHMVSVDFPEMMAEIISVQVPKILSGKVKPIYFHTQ
Method: (§1) HeLa cells (purchased from Dai-Nippon Seiyaku K. K.) were cultured overnight in Dulbecco's Modified Eagle Medium containing no phenol red, but containing 3% charcoal-treated fetal bovine serum (hereafter referred to as DCC-FBS) (this medium is hereafter referred to as phenol-red-free DMEM). An MMTV-Luc-Hyg vector (reporter plasmid with mouse mammary tumor virus long terminal repeat, containing an androgen response element and a hygromycin resistance gene: a vector obtained by substituting a chloramphenicol acetyl transferease gene of a GM-CAT vector (A.T.C.C No. 67282) purchased from the A.T.C.C. with the firefly luciferase gene, and inserting a hygromycin resistance gene as a drug resistant gene), and pSG5-hAR-neo (human androgen receptor expression vector: a vector having an androgen receptor gene under the control of the SV40 promoter, and having a neomycin resistance gene inserted as a drug resistance gene) were transfected into the HeLa cells using an FuGENE™ 6 Transfection Reagent (obtained from Roche).
(§2) The clone cells thus obtained (11A11B2 cells) were maintained and propagated using DMEM containing 400 μg/mL neomycin, 200 μg/mL hygromycin and 10% FBS, and were propagated using phenol-red-free DMEM containing 10% DCC-FBS three to four days prior to the performance of an androgen receptor reporter gene assay.
The 11A11B2 cells were inoculated in a white clear-bottomed 96-well microplate (COSTAR) so that the cell concentration was 1.0×10^4/well, and were cultured overnight using phenol-red-free DMEM containing 3% DCC-FBS (hereafter referred to as the assay medium). Samples of the assay medium containing the compounds of the Examples and compounds of the Comparative Examples were added so that the final concentrations of the compounds of the Examples and compounds of the Comparative Examples were 1, 10, 100, 1,000 and 10,000 nmol/L), and the cells were cultured for 48 hours, after which the transcription activity value was measured. The transcription activity was measured using a Bright-Glo™ Luciferase Assay System (Promega).
The transcription activity rates of the compounds of the Examples were calculated from the transcription activity measured by the abovementioned method, with the transcription activity value obtained at 0.1 nmol/L DHT taken as 100%, and the transcription activity value in the case of the assay medium alone taken as 0%. The compound concentration showing a transcription activity of 5% (EC5 value) was calculated from a linear equation for two points on either side of 5%.

human androgen receptor [2] = target: T1, human androgen receptor; assay: Investigation of antagonist effect on androgen receptor (reporter gene assay, 11A11B2 cells, with DHT); assay type: cell-based
Method: as §1, §2
The 11A11B2 cells were inoculated in a white clear-bottomed 96-well microplate (COSTAR) so that the cell concentration was 1.0×10^4/well, and were cultured overnight. The assay medium containing DHT was added so that the final concentration of DHT was 0.1 nmol/L, and samples of the assay medium containing the compounds of the Examples or compounds of the Comparative Examples were added so that the final concentrations of the compounds of the Examples or compounds of the Comparative Examples were 1, 10, 100, 1,000 and 10,000 nmol/L, respectively. After culturing for 48, hours, the transcription activity values were measured. The transcription activity was measured using a Bright-Glo™ Luciferase Assay System (Promega).
The transcription activity rates of the compounds of the Examples were calculated from the transcription activity measured by the abovementioned method, with the transcription activity value obtained at 0.1 nmol/L DHT taken as 100%, and the transcription activity value in the case of the assay, medium alone taken as 0%.

[3] = with 0.1 nmol/L DHT, transcription activity rate of Test Example 1 subtracted, 11A11B2 cells, 48 hours, read-out: IC50

| SMILES | EC5 (human androgen receptor [1]) [µM] | IC50 (human androgen receptor [2]) [nM] | IC50 (human androgen receptor [2]; [3]) [nM] |
| --- | --- | --- | --- |
| CN1C(=S)N(c2ccc(C#N)c(C(F)(F)F)c2)C(=O)C1(C)C [Comparative Example 1, 4-(5-oxo-2-thioxo-3,4,4-trimethyl-1-imidazolidinyl)-2-trifluoromethylbenzonitrile, reference compound] | 8e-05 |  |  |
| CC(=O)NCCN1C(=S)N(c2ccc(C#N)c(C(F)(F)F)c2)C(=O)C1(C)C [Comparative Example 2, 4-[3′-(2″-N-acetylaminoethyl)-4′,4′-dimethyl-5′-oxo-2′-thioxo-1′-imidazolidinyl]-2-trifluoromethylbenzonitrile, reference compound] | 3 |  |  |
| CCOC(=O)N1CCC(N2C(=S)N(c3ccc(C#N)c(Cl)c3)C(=O)C2(C)C)CC1 [Example 2, 4-[3-(1-ethoxycarbonylpiperidin-4-yl)-4,4-dimethyl-5-oxo-2-thioxoimidazolidin-1-yl]-2-chlorobenzonitrile] | 8 | 80 |  |
| CC(=O)N1CCC(N2C(=S)N(c3ccc(C#N)c(C(F)(F)F)c3)C(=O)C2(C)C)CC1 [Example 4, 4-[3-(1-acetylpiperidin-4-yl)-4,4-dimethyl-5-oxo-2-thioxoimidazolidin-1-yl]-2-trifluoromethylbenzonitrile] | >10 |  | 300 |
| CCS(=O)(=O)N1CCC(N2C(=S)N(c3ccc(C#N)c(C(F)(F)F)c3)C(=O)C2(C)C)CC1 [Example 5, 4-[3-(1-ethanesulfonylpiperidin-4-yl)-4,4-dimethyl-5-oxo-2-thioxoimidazolidin-1-yl]-2-trifluoromethylbenzonitrile] | >10 | 300 |  |
| CC(=O)N1CCC(N2C(=S)N(c3ccc(C#N)c(Cl)c3)C(=O)C2(C)C)CC1 [Example 6, 4-[3-(1-acetylpiperidin-4-yl)-4,4-dimethyl-5-oxo-2-thioxoimidazolidin-1-yl]-2-chlorobenzonitrile] | >10 | 200 |  |
| CCC(=O)N1CCC(N2C(=S)N(c3ccc(C#N)c(Cl)c3)C(=O)C2(C)C)CC1 [Example 7, 4-[3-(1-propionylpiperidin-4-yl)-4,4-dimethyl-5-oxo-2-thioxoimidazolidin-1-yl]-2-chlorobenzonitrile] | >10 | 300 |  |
| CCCS(=O)(=O)N1CCC(N2C(=S)N(c3ccc(C#N)c(Cl)c3)C(=O)C2(C)C)CC1 [Example 8, 4-[3-(1-propanesulfonylpiperidin-4-yl)-4,4-dimethyl-5-oxo-2-thioxoimidazolidin-1-yl]-2-chlorobenzonitrile] | >10 | 300 |  |
| CCS(=O)(=O)N1CCC(N2C(=S)N(c3ccc(C#N)c(Cl)c3)C(=O)C2(C)C)CC1 [Example 9, 4-[3-(1-ethanesulfonylpiperidin-4-yl)-4,4-dimethyl-5-oxo-2-thioxoimidazolidin-1-yl]-2-chlorobenzonitrile] | >10 | 300 |  |
| CCS(=O)(=O)N1CCC(N2C(=O)N(c3ccc(C#N)c(C(F)(F)F)c3C)C(=O)C2(C)C)CC1 [Example 10, 4-[3-(1-ethanesulfonylpiperidin-4-yl)-4,4-dimethyl-2,5-dioxoimidazolidin-1-yl]-2-trifluoromethyl-3-methylbenzonitrile] | >10 |  | 600 |
| CCCS(=O)(=O)N1CCC(N2C(=O)N(c3ccc(C#N)c(Cl)c3C)C(=O)C2(C)C)CC1 [Example 11, 4-[3-(1-propanesulfonylpiperidin-4-yl)-4,4-dimethyl-2,5-dioxoimidazolidin-1-yl]-2-chloro-3-methylbenzonitrile] | >10 |  | 300 |
| CCNC(=O)N1CCC(N2C(=S)N(c3ccc(C#N)c(C(F)(F)F)c3)C(=O)C2(C)C)CC1 [Example 38, 4-[3-(1-ethylaminocarbonylpiperidin-4-yl)-4,4-dimethyl-5-oxo-2-thioxoimidazolidin-1-yl]-2-trifluoromethylbenzonitrile] | >10 |  |  |
| CCNC(=O)N1CCC(N2C(=S)N(c3ccc(C#N)c(Cl)c3)C(=O)C2(C)C)CC1 [Example 40, 4-[3-(1-ethylaminocarbonylpiperidin-4-yl)-4,4-dimethyl-5-oxo-2-thioxoimidazolidin-1-yl]-2-chlorobenzonitrile] | >10 |  |  |
| CCNS(=O)(=O)N1CCC(N2C(=S)N(c3ccc(C#N)c(C(F)(F)F)c3)C(=O)C2(C)C)CC1 [Example 42, 4-[3-(1-ethylaminosulfonylpiperidin-4-yl)-4,4-dimethyl-5-oxo-2-thioxoimidazolidin-1-yl]-2-trifluoromethylbenzonitrile] |  |  | 700 |
| CC1(C)C(=O)N(c2ccc(C#N)c(C(F)(F)F)c2)C(=S)N1C1CCN(C(=O)OCC(O)CO)CC1 (stereo not shown) [Example 45, 4-[3-(4-cyano-3-trifluoromethylphenyl)-5,5-dimethyl-4-oxo-2-thioxoimidazolidin-1-yl]piperidine-1-carboxylic acid 2,3-dihydroxypropyl ester] | >10 |  |  |
| COc1cc(N2C(=O)C(C)(C)N(c3ccc(Cl)c(NC(=O)OCC(O)CO)c3)C2=S)ccc1C#N (stereo not shown) [Example 51, {2-chloro-5-[3-(4-cyano-3-methoxyphenyl)-5,5-dimethyl-4-oxo-2-thioxoimidazolidin-1-yl]phenyl}-carbamic acid 2,3-dihydroxypropyl ester] | >10 |  |  |
| CN(C)CCOC(=O)Nc1cc(N2C(=S)N(c3ccc(C#N)c(Cl)c3)C(=O)C2(C)C)ccc1Cl [Example 53, {2-chloro-5-[3-(4-cyano-3-chlorophenyl)-5,5-dimethyl-4-oxo-2-thioxoimidazolidin-1-yl]phenyl}-carbamic acid 2-dimethylaminoethyl ester] | >10 |  |  |
| CC1(C)C(=O)N(c2ccc(C#N)c(Cl)c2)C(=S)N1c1ccc2sc(NC(=O)NCC(O)CO)nc2c1 (stereo not shown) [Example 62, 1-{5-[3-(3-chloro-4-cyanophenyl)-5,5-dimethyl-4-oxo-2-thioxoimidazolidin-1-yl]benzothiazol-2-yl}-3-(2,3-dihydroxypropyl)urea] | >10 |  |  |
| CC1(C)C(=O)N(c2ccc(C#N)c(C(F)(F)F)c2)C(=S)N1c1ccc(Cl)c(NC(=O)CCC(N)=O)c1 [Example 67, N-{2-chloro-5-[3-(4-cyano-3-trifluoromethylphenyl)-5,5-dimethyl-4-oxo-2-thioxoimidazolidin-1-yl]phenyl}-succinamide] | >10 |  |  |
